Test results taken from patent publication US8722910B2, “Diyne compositions” (Evolva AG, priority 2009, dated 2014).
In brackets after ≈: the same amount, converted by molar mass. Where two headings read alike, the source gives them in different places.

Assays:
C. krusei ATCC-6258 = assay: MIC versus reference Candida strains (broth micro dilution); set-up: MICs (100% inhibition): unit not given beside the values; conditions: for MIC: Pichia kudriavzevii
Botrytis cinerea [1] = assay: In vitro mycelial growth inhibition, poisoned plate; type: cell-based; conditions: 2.5 μg/ml
Protocol: (§1) Growth of fungi was carried out in potato dextrose agar media at […], and test compound was added at different concentrations and at pH 5.8 for compound X″ and at pH 7.0 for its potassium salt, compound XII″, with a water control instead of test compound. Radial mycelial growth was measured at regular intervals 4, 8, 12 and 16 days for slow growing fungi and at 3, 6 and 8 days for fast growing fungi. When the mycelia reached the end of the plate, measurements were stopped. Morphological changes in the hyphal growth and sporulation patterns were also observed. For dose response studies a range of concentrations and a range of inhibition obtained falling below and above 50% inhibition (see Table 23 below)

[2] = tested on: Colletotrichum gloeosporioides (chili strain); assay: as above; type: cell-based; conditions: 5 μg/ml
Protocol: as §1

[3] = tested on: Colletotrichum gloeosporioides (mango strain); assay: as above; type: cell-based; conditions: 5 μg/ml
Protocol: as §1

Alternaria solani = assay: as above; type: cell-based; conditions: 50 μg/ml
Protocol: as §1

Magnaporthe grisea = assay: microbe, parasite or virus in culture; type: cell-based; conditions: Pyricularia oryzae, read-out: % Mycelial growth Inhibition
Plasmopara viticola = type: cell-based; set-up: dose or concentration left out as unconfirmed; conditions: Plasmopara viticola (spore germination)
C. tropicalis ATCC-750 = assay: MIC versus reference Candida strains (broth micro dilution); set-up: MICs (100% inhibition): unit not given beside the values; conditions: for MIC: Candida tropicalis
C. albicans ATCC-90028 = assay: as above; set-up: MICs (100% inhibition): unit not given beside the values; conditions: for MIC: Candida albicans
C. albicans ATCC-24433 = assay: as above; set-up: MICs (100% inhibition): unit not given beside the values; conditions: for MIC: Candida albicans
Puccinia arachidis = assay: Leaf disk assay; conditions: Puccinia arachidis (leaf disc assay)
Uncinula necator = assay: Leaf disk assay; conditions: Uncinula necator (leaf disc assay)
Protocol: Leaf disk assay was carried out by the cavity well plate method for powdery mildew disease of grapes. Leaf disks of 14 mm in diameter were cut with a cork borer from the healthy leaves (second and third from the tip) of grapevine plants, and were dipped in 100 μl of each test compound at different concentrations for two minutes, as in treatment details shown below. The control leaf disks were dipped only in sterile water for two minutes. The compound treated leaf disks were placed, abaxial side up, in TC-24 well plates containing water agar medium. The disks were inoculated by placing 20 μl of inoculum (1-5×10^6 spores/ml) on the centre of the disk. After inoculation, the cavity well plates were incubated at 20° C. for 10 days. After incubation, the powdery mildew lesions on the leaf disks were rated to 0-9 scale, in which, 0 was no visible symptoms and 9 represented more than 50% leaf area with mildew growth/lesion. Percent disease index (PDI) was calculated as follows: […]
After the observation, the conidia were washed from the leaf disks in known volume of a fixative solution of ethanol-formaldehyde-acetic acid (90:5:5, v/v/v) and counted with a hemocytometer.

C. albicans SC5314 = assay: MIC versus reference Candida strains (broth micro dilution); type: cell-based
[4] = tested on: C. parapsilosis ATCC-90018; assay: as above; set-up: MICs (100% inhibition): unit not given beside the values; conditions: for MIC: Lodderomyces parapsilosis
C. glabrata ATCC-90030 = assay: as above; set-up: MICs (100% inhibition): unit not given beside the values; conditions: for MIC: Nakaseomyces glabratus
M. grisea = type: cell-based; conditions: sterile water with different concentrations of test compound
[5] = tested on: C. parapsilosis ATCC-22019; assay: MIC versus reference Candida strains (broth micro dilution); set-up: MICs (100% inhibition): unit not given beside the values; conditions: for MIC: Lodderomyces parapsilosis
Botrytis cinerea [6] = assay: Changes in the hyphal tips; type: cell-based; conditions: compound in the media, 2 μg/ml
Text: Apical dominance is an important criterion for growth of hyphae of fungi: at the apical tip of the mycelia branching is not seen near the growing tip. Apical dominance is maintained but branching of hyphae will start at sub-apical point, a distance away from the growth point. Under abnormal conditions of stress, apical dominance is lost, extensive branching begins, resulting in the growth of the fungal mycelia being arrested. When the test compound is incorporated in the media in which the fungi is present, hyphal tip splitting and branching is seen with loss of apical dominance and polarity. […] Hyphae from the inoculated disc start growing against gravity and are thicker than the normal hyphae seen in the control (the two upper pictures).

[7] = tested on: Colletotrichum gloeosporioides; assay: Paper disc in the path of pathogen growth, growth and sporulation; type: cell-based; conditions: compound on sterile paper disc
Fusarium verticillioides = assay: In vitro mycelial growth inhibition, poisoned plate; type: cell-based; conditions: 50 μg/ml
Fusarium oxysporum = assay: Mycelial growth inhibition, disc diffusion assay; type: cell-based
[8] = tested on: Botryodiplodia theobromae; assay: In vitro mycelial growth inhibition, poisoned plate; type: cell-based; conditions: Lasiodiplodia theobromae, 50 μg/ml
Pythium aphanidermatum = assay: as above; type: cell-based; conditions: 50 μg/ml
Sclerotium rolfsii = assay: as above; type: cell-based; conditions: Agroathelia rolfsii, 50 μg/ml
Macrophomina phaseolina = assay: as above; type: cell-based; conditions: 100 μg/ml
Rhizoctonia solani = assay: as above; type: cell-based; conditions: 50 μg/ml

In the case of `O=C([O-])CCCCCCCCCC#CC#Cc1ccco1.[K+]` [Compound XII″, Potassium 14-(furan-2-yl)tetradeca-11,13-diynoate], the MIC (C. krusei ATCC-6258; ATCC6258) is reported as 0.64 µg/mL, the inhibition at 2.5 µg/mL (Botrytis cinerea [1]) is reported as 76% and the inhibition at 5 µg/mL [2] is reported as 10%. The inhibition at 5 µg/mL [3] was 28%, the inhibition at 50 µg/mL (Alternaria solani) was 42% and the inhibition at 5 µg/mL (Magnaporthe grisea) was 27%. The “Reduction in % disease index/germination” value (Plasmopara viticola) was 93%, the MIC (C. tropicalis ATCC-750; ATCC750) was 0.01 µg/mL and the MIC (C. albicans ATCC-90028; ATCC90028) was 0.01 µg/mL. For the same molecule, the MIC (C. albicans ATCC-24433; ATCC24433) was 0.01 µg/mL, the “Reduction in % disease index/germination” value (Puccinia arachidis; 10 μg/ml) was 67% and the “Reduction in % disease index/germination” value (Puccinia arachidis; 20 μg/ml) was 75%. The “Reduction in % disease index/germination” value (Uncinula necator; 10 μg/ml) was 65%, the “Reduction in % disease index/germination” value (Uncinula necator; 20 μg/ml) was 100% and the MIC (C. albicans SC5314) was 0.01 µg/mL. For the same molecule, the MIC ([4]; ATCC90018) was 5.12 µg/mL, the MIC (C. glabrata ATCC-90030; ATCC90030) was 0.32 µg/mL and the “spores that did not germinate” value (M. grisea) was “more than 50%”. The MIC ([5]; ATCC22019) was over 10.2 µg/mL, the “toxicity to the fungus, hyphal changes” value (Botrytis cinerea [6]) was “toxic to the fungus Botrytis cinerea” and the “growth of the mycelia” value [7] was “the growth of the mycelia is arrested”. The “sporulation around the loaded disc” value [7] was “no sporulation observed”.
For `O=C(O)CCCCCCCCCC#CC#Cc1ccco1` [Compound X″], the MIC breakpoints (C. krusei ATCC-6258; C. krusei ATCC 6258, CLSI M27-A3, growth inhibition of 100%, 35° C., 24 hrs) was 1.28 µg/mL (≈ 4.47 µM), the “MICs (100% inhibition)” value (C. krusei ATCC-6258; C. krusei ATCC 6258, NCCLS M27A, 35° C., 24 hrs) was 1280 and the MIC (C. krusei ATCC-6258; ATCC6258, read-out: minimal inhibitory concentrations) was 1.28 µg/mL (≈ 4.47 µM). The inhibition at 50 µg/mL (Fusarium verticillioides) was 14%, the MIC breakpoints (C. tropicalis ATCC-750; C. tropicalis ATCC 750, CLSI M27-A3, growth inhibition of 100%, 35° C., 24 hrs) was 0.08 µg/mL (≈ 0.279 µM) and the “MICs (100% inhibition)” value (C. tropicalis ATCC-750; C. tropicalis ATCC 750, NCCLS M27A, 35° C., 24 hrs) was 80. For the same molecule, the MIC (C. tropicalis ATCC-750; ATCC750, read-out: minimal inhibitory concentrations) was 0.08 µg/mL (≈ 0.279 µM), the MIC breakpoints (C. albicans ATCC-90028; C. albicans ATCC 90028, CLSI M27-A3, growth inhibition of 100%, 35° C., 24 hrs) was 0.02 µg/mL (≈ 0.0698 µM) and the “MICs (100% inhibition)” value (C. albicans ATCC-90028; C. albicans ATCC 90028, NCCLS M27A, 35° C., 24 hrs) was 20. For the same molecule, the MIC (C. albicans ATCC-90028; ATCC90028, read-out: minimal inhibitory concentrations) was 0.02 µg/mL (≈ 0.0698 µM), the MIC breakpoints (C. albicans ATCC-24433; C. albicans ATCC 24433, CLSI M27-A3, growth inhibition of 100%, 35° C., 24 hrs) was 0.02 µg/mL (≈ 0.0698 µM) and the “MICs (100% inhibition)” value (C. albicans ATCC-24433; C. albicans ATCC 24433, NCCLS M27A, 35° C., 24 hrs) was 20. For the same molecule, the MIC (C. albicans ATCC-24433; ATCC24433, read-out: minimal inhibitory concentrations) was 0.02 µg/mL (≈ 0.0698 µM), the “% Mycelial Growth Inhibition” value (Fusarium oxysporum) was “No inhibition” and the inhibition at 50 µg/mL [8] was 15%. For the same molecule, the MIC breakpoints ([4]; C. parapsilosis ATCC 90018, CLSI M27-A3, growth inhibition of 100%, 35° C., 24 hrs) was over 10.24 µg/mL, the “MICs (100% inhibition)” value ([4]; C. parapsilosis ATCC 90018, NCCLS M27A, 35° C., 24 hrs) was over 10240 and the MIC ([4]; ATCC90018, read-out: minimal inhibitory concentrations) was over 10.2 µg/mL. The MIC breakpoints (C. glabrata ATCC-90030; C. glabrata ATCC 90030, CLSI M27-A3, growth inhibition of 100%, 35° C., 24 hrs) was 2.56 µg/mL (≈ 8.94 µM), the “MICs (100% inhibition)” value (C. glabrata ATCC-90030; C. glabrata ATCC 90030, NCCLS M27A, 35° C., 24 hrs) was 2560 and the MIC (C. glabrata ATCC-90030; ATCC90030, read-out: minimal inhibitory concentrations) was 2.56 µg/mL (≈ 8.94 µM). The “% Mycelial Growth Inhibition” value (Pythium aphanidermatum) was “No inhibition”, the MIC breakpoints ([5]; C. parapsilosis ATCC 22019, CLSI M27-A3, growth inhibition of 100%, 35° C., 24 hrs) was over 10.24 µg/mL and the “MICs (100% inhibition)” value ([5]; C. parapsilosis ATCC 22019, NCCLS M27A, 35° C., 24 hrs) was over 10240. The MIC ([5]; ATCC22019, read-out: minimal inhibitory concentrations) was over 10.2 µg/mL, the inhibition at 50 µg/mL (Sclerotium rolfsii) was 5% and the inhibition at 100 µg/mL (Macrophomina phaseolina) was 15%. The inhibition at 50 µg/mL (Rhizoctonia solani) was 19%.
